Data reported in patent publication US20090253669A1, “Substituted Sulfonamide Compounds” (GRUENENTHAL GmbH, priority 2008, published 2009).

Experiments:
[1] = target: T1, human B1R receptor (hB1R) (Homo sapiens, UniProt P46663); test: FLIPR Ca2+ assay on hB1R-transfected CHO K1 cells, antagonistic action; format: cell-based; conditions: CHO-K1, 10 μM test substance; agonist Lys-Des-Arg9-bradykinin 0.5 nM; % of maximum achievable inhibition; read-out: hB1R [10 μM] % inhibition
T1 construct: host or cells: CHO K1 cells
T1 sequence (P46663 1-353): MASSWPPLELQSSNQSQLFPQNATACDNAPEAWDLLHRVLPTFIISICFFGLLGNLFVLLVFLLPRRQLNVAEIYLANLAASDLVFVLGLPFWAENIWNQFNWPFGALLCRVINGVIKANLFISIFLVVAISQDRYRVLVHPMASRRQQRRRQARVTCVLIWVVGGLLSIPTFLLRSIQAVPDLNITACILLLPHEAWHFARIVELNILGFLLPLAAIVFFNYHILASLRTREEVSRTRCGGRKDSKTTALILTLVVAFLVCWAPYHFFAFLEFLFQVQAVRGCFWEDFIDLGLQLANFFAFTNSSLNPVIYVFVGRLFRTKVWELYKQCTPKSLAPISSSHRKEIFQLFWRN

[2] = target: T2, B1R receptor of the rat (rB1R) (Rattus norvegicus, UniProt P97583); test: FLIPR Ca2+ assay on rB1R-transfected CHO K1 cells, antagonistic action; format: cell-based; conditions: CHO-K1, 10 μM test substance; agonist Des-Arg9-bradykinin 100 nM; % of maximum achievable inhibition; read-out: rB1R [10 μM] % inhibition
T2 construct: host or cells: CHO K1 cells
T2 sequence (P97583 1-337): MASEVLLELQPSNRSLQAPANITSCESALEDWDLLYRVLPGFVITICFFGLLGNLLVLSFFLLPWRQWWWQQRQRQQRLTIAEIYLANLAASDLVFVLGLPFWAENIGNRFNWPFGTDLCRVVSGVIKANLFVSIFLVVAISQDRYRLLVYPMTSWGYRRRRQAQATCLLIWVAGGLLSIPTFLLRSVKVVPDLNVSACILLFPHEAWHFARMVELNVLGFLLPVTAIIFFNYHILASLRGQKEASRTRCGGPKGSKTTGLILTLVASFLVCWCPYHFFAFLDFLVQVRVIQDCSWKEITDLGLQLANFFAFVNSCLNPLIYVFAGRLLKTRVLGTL

SMILES | inhibition at 10 µM [1] | inhibition at 10 µM [2]
Cc1cc(S(=O)(=O)N2CCCCC2CCC(=O)N2CCC(c3ccc(F)cc3)(N3CCN(C)CC3)CC2)c(C)cc1Cl (stereo not shown) [Compound 138, 3-(1-(4-chloro-2,5-dimethylphenylsulfonyl)piperidin-2-yl)-1-(4-(4-fluorophenyl)-4-(4-methylpiperazin-1-yl)piperidin-1-yl)propan-1-one] | 102% | 28%
Cc1cc(S(=O)(=O)N2CCCCC2CCC(=O)N(C)CCC2CCC(c3ccccc3)(N3CCCC3)CC2)c(C)cc1Cl (stereo not shown) [Compound 139, 3-(1-(4-chloro-2,5-dimethylphenylsulfonyl)piperidin-2-yl)-N-methyl-N-(2-(4-phenyl-4-(pyrrolidin-1-yl)cyclohexyl)ethyl)propanamide] | 105% | 24%
Cc1cc(S(=O)(=O)N2CCCCC2CCC(=O)N(C)CC2CCC(c3ccccc3)(N3CCCC3)CC2)c(C)cc1Cl (stereo not shown) [Compound 140, 3-(1-(4-chloro-2,5-dimethylphenylsulfonyl)piperidin-2-yl)-N-methyl-N-((4-phenyl-4-(pyrrolidin-1-yl)cyclohexyl)methyl)propanamide] | 103% | 21%
Cc1cc(S(=O)(=O)N2CCCCC2CCC(=O)N(C)CC2CCC(CCc3ccccc3)(N3CCCC3)CC2)c(C)cc1Cl (stereo not shown) [Compound 141, 3-(1-(4-chloro-2,5-dimethylphenylsulfonyl)piperidin-2-yl)-N-methyl-N-((4-phenethyl-4-(pyrrolidin-1-yl)cyclohexyl)methyl)propanamide] | 104% | 20%
O=C(COCC1CCCCN1S(=O)(=O)c1c(Cl)cc(Cl)cc1Cl)NC1CCC(c2ccccc2)(N2CCCC2)CC1 (stereo not shown) [Compound 142, N-(4-phenyl-4-(pyrrolidin-1-yl)cyclohexyl)-2-((1-(2,4,6-trichlorophenylsulfonyl)piperidin-2-yl)methoxy)acetamide] | 92% | 113%
COc1cc(C)c(S(=O)(=O)N2CCCCC2COCC(=O)N(C)CC2CCC(Cc3ccccc3)(N3CCN(C)CC3)CC2)c(C)c1 (stereo not shown) [Compound 143, N-((4-benzyl-4-(4-methylpiperazin-1-yl)cyclohexyl)methyl)-2-((1-(4-methoxy-2,6-dimethylphenylsulfonyl)piperidin-2-yl)methoxy)-N-methylacetamide] | 103% | 111%
COc1cc(C)c(S(=O)(=O)N2CCCCC2COCC(=O)N(C)CC2CCC(CCc3ccccc3)(N3CCN(C)CC3)CC2)c(C)c1 (stereo not shown) [Compound 144, 2-((1-(4-methoxy-2,6-dimethylphenylsulfonyl)piperidin-2-yl)methoxy)-N-methyl-N-((4-(4-methylpiperazin-1-yl)-4-phenethylcyclohexyl)methyl)acetamide] | 103% | 111%
COc1cc(C)c(S(=O)(=O)N2CCCC2COCC(=O)NC2CCC(c3ccccc3)(N3CCCC3)CC2)c(C)c1 (stereo not shown) [Compound 145, 2-((1-(4-methoxy-2,6-dimethylphenylsulfonyl)pyrrolidin-2-yl)methoxy)-N-(4-phenyl-4-(pyrrolidin-1-yl)cyclohexyl)acetamide] | 92% | 110%
O=C(COCC1CCCN1S(=O)(=O)c1c(Cl)cc(Cl)cc1Cl)NC1CCC(c2ccccc2)(N2CCCC2)CC1 (stereo not shown) [Compound 146, N-(4-phenyl-4-(pyrrolidin-1-yl)cyclohexyl)-2-((1-(2,4,6-trichlorophenylsulfonyl)pyrrolidin-2-yl)methoxy)acetamide] | 64% | 108%
COc1cc(C)c(S(=O)(=O)N2CCCCC2COCC(=O)NC2CCC(c3ccccc3)(N3CCCC3)CC2)c(C)c1 (stereo not shown) [Compound 147, 2-((1-(4-methoxy-2,6-dimethylphenylsulfonyl)piperidin-2-yl)methoxy)-N-(4-phenyl-4-(pyrrolidin-1-yl)cyclohexyl)acetamide] | 94% | 108%
COc1cc(C)c(S(=O)(=O)N2CCCC2COCC(=O)N(C)CC2CCC(CCc3ccccc3)(N3CCN(C)CC3)CC2)c(C)c1 (stereo not shown) [Compound 148, 2-((1-(4-methoxy-2,6-dimethylphenylsulfonyl)pyrrolidin-2-yl)methoxy)-N-methyl-N-((4-(4-methylpiperazin-1-yl)-4-phenethylcyclohexyl)methyl)acetamide] | 102% | 106%
COc1cc(C)c(S(=O)(=O)N2CCCCC2COCC(=O)NC2CCC(Cc3ccccc3)(N3CCCC3)CC2)c(C)c1 (stereo not shown) [Compound 149, N-(4-benzyl-4-(pyrrolidin-1-yl)cyclohexyl)-2-((1-(4-methoxy-2,6-dimethylphenylsulfonyl)piperidin-2-yl)methoxy)acetamide] | 103% | 105%
COc1cc(C)c(S(=O)(=O)N(C)CCOCC(=O)NC2CCC(c3ccccc3)(N3CCCC3)CC2)c(C)c1 (stereo not shown) [Compound 150, 2-(2-(4-methoxy-N,2,6-trimethylphenylsulfonamido)ethoxy)-N-(4-phenyl-4-(pyrrolidin-1-yl)cyclohexyl)acetamide] | 102% | 104%
COc1cc(C)c(S(=O)(=O)N2CCCC2COCC(=O)NC2CCC(Cc3ccccc3)(N3CCCC3)CC2)c(C)c1 (stereo not shown) [Compound 151, N-(4-benzyl-4-(pyrrolidin-1-yl)cyclohexyl)-2-((1-(4-methoxy-2,6-dimethylphenylsulfonyl)pyrrolidin-2-yl)methoxy)acetamide] | 90% | 103%
COc1cc(C)c(S(=O)(=O)N2CCCC2COCC(=O)NCC2CCC(c3ccccc3)(N3CCOCC3)CC2)c(C)c1 (stereo not shown) [Compound 152, 2-((1-(4-methoxy-2,6-dimethylphenylsulfonyl)pyrrolidin-2-yl)methoxy)-N-((4-morpholino-4-phenylcyclohexyl)methyl)acetamide] | 84% | 102%
COc1cc(C)c(S(=O)(=O)N2CCC(OCC(=O)NC3CCC(c4ccccc4)(N4CCCC4)CC3)C2)c(C)c1 (stereo not shown) [Compound 153, 2-(1-(4-methoxy-2,6-dimethylphenylsulfonyl)pyrrolidin-3-yloxy)-N-(4-phenyl-4-(pyrrolidin-1-yl)cyclohexyl)acetamide] | 97% | 102%
COc1cc(C)c(S(=O)(=O)N2CCCC2COCC(=O)N(C)CC2CCC(Cc3ccccc3)(N3CCN(C)CC3)CC2)c(C)c1 (stereo not shown) [Compound 154, N-((4-benzyl-4-(4-methylpiperazin-1-yl)cyclohexyl)methyl)-2-((1-(4-methoxy-2,6-dimethylphenylsulfonyl)pyrrolidin-2-yl)methoxy)-N-methylacetamide] | 95% | 101%
COc1cc(C)c(S(=O)(=O)N2CCCCC2COCC(=O)NC2CCC(Cc3ccccc3)(N3CCOCC3)CC2)c(C)c1 (stereo not shown) [Compound 155, N-(4-benzyl-4-morpholinocyclohexyl)-2-((1-(4-methoxy-2,6-dimethylphenylsulfonyl)piperidin-2-yl)methoxy)acetamide] | 97% | 100%
O=C(COCC1CCCN1S(=O)(=O)c1c(Cl)cc(Cl)cc1Cl)NC1CCC(Cc2ccccc2)(N2CCCC2)CC1 (stereo not shown) [Compound 156, N-(4-benzyl-4-(pyrrolidin-1-yl)cyclohexyl)-2-((1-(2,4,6-trichlorophenylsulfonyl)pyrrolidin-2-yl)methoxy)acetamide] | 76% | 100%
COc1cc(C)c(S(=O)(=O)N2CCCCC2COCC(=O)NCC2CCC(c3ccccc3)(N3CCOCC3)CC2)c(C)c1 (stereo not shown) [Compound 157, 2-((1-(4-methoxy-2,6-dimethylphenylsulfonyl)piperidin-2-yl)methoxy)-N-((4-morpholino-4-phenylcyclohexyl)methyl)acetamide] | 76% | 99%
COc1cc(C)c(S(=O)(=O)N2CCCCC2COCC(=O)NC2CCC(c3ccccc3)(N3CCOCC3)CC2)c(C)c1 (stereo not shown) [Compound 158, 2-((1-(4-methoxy-2,6-dimethylphenylsulfonyl)piperidin-2-yl)methoxy)-N-(4-morpholino-4-phenylcyclohexyl)acetamide] | 87% | 99%
COc1cc(C)c(S(=O)(=O)N2CCCC2COCC(=O)NC2CCC(Cc3ccccc3)(N3CCOCC3)CC2)c(C)c1 (stereo not shown) [Compound 159, N-(4-benzyl-4-morpholinocyclohexyl)-2-((1-(4-methoxy-2,6-dimethylphenylsulfonyl)pyrrolidin-2-yl)methoxy)acetamide] | 45% | 98%
COc1cc(C)c(S(=O)(=O)N2CCCC2COCC(=O)NC2CCC(c3ccccc3)(N3CCOCC3)CC2)c(C)c1 (stereo not shown) [Compound 160, 2-((1-(4-methoxy-2,6-dimethylphenylsulfonyl)pyrrolidin-2-yl)methoxy)-N-(4-morpholino-4-phenylcyclohexyl)acetamide] | 93% | 98%
